Laboratory results from article PMC3401419 (Journal of the American Chemical Society, 2012).
Like-named read-outs stand apart in the source and are kept apart here. Where a SMILES comes first, the peptide text is derived from it.

What was measured:
[1] = target: T1, Recombinant human somatic ACE (sACE-1) (Homo sapiens, UniProt P12821); conditions: pH 7.4
[2] = target: T1, Recombinant human somatic ACE (sACE-1); assay: Time-dependent inactivation of sACE-1 with coreactants; conditions: pH 7.4, 37 °C, same concentration as corresponding lisinopril complex
[3] = target: T1, Recombinant human somatic ACE (sACE-1); assay: biochemical
[4] = target: T1, Recombinant human somatic ACE (sACE-1); assay: Concentration-dependent inhibition of sACE-1; conditions: inhibitor and substrate concentration varied, Dixon plots

T1 sequence (P12821 30-1261): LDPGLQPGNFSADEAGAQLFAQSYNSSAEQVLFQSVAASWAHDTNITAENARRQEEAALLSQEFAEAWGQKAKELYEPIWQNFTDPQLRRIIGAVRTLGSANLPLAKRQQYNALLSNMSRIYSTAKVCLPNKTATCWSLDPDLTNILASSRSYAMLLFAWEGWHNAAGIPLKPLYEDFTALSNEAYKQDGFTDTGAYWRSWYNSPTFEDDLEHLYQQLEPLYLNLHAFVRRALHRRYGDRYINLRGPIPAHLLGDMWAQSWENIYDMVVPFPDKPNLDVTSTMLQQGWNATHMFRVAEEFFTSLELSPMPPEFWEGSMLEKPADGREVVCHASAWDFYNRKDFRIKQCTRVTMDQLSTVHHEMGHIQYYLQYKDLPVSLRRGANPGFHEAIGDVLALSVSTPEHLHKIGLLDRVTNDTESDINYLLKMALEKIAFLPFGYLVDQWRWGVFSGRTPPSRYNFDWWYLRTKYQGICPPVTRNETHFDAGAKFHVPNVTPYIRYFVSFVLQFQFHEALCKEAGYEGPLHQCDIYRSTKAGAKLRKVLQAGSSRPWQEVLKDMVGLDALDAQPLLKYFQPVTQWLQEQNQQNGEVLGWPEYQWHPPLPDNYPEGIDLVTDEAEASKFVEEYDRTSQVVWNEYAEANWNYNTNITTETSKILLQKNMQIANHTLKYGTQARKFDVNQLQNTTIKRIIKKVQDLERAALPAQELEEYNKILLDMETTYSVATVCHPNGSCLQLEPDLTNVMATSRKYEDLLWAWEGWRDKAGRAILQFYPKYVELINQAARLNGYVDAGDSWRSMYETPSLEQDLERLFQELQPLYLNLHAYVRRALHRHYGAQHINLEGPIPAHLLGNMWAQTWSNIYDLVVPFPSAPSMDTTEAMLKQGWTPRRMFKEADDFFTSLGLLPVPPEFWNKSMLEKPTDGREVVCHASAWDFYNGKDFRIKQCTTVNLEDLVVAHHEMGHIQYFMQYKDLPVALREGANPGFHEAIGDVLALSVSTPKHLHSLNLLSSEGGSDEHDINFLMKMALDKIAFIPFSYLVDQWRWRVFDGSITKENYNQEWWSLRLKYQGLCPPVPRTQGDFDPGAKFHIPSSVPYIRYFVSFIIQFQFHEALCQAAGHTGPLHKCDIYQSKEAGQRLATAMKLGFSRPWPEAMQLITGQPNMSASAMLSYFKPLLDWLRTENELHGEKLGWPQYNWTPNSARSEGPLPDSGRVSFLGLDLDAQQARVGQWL

Row | Compound | IC50 [1] [µM] | IC50 [3] [µM] | further results
1 | O=C(O)CN1CCN(CC(=O)O)CCN(CC(=O)O)CCN(CC(=O)O)CC1 [DOTA, 1,4,7,10-tetraazacyclododecane-1,4,7,10-tetraacetic acid] |  | 7 | 
2 | NCC(=O)NCC(=O)N[C@@H](Cc1cnc[nH]1)C(=O)O [GGH] (H-Gly-Gly-His-OH) | > 100 |  | 
3 | O=C(O)CN(CC(=O)O)CC(=O)O [NTA, Nitrilotriacetic acid] |  | 32 | 
4 | NCCCC[C@H](N[C@@H](CCc1ccccc1)C(=O)O)C(=O)N1CCC[C@H]1C(=O)O [lisinopril] |  |  | mode of inhibition of sACE-1 [4]: competitive

Continued, in another order:

Row | IC50 [1] [µM] | IC50 [3] [µM] | Compound | further results
5 | 26 |  | O=C([O-])CN(CCN(CC(=O)[O-])CC(=O)[O-])CC(=O)[O-].[Cu+2] [Cu-EDTA] | k2 for inactivation of sACE-1, M-chelate without lisinopril (control) ([2]; Ascorbate): 2,000 ± 3,000 {-- ^d} M^−1min^−1; k2 for inactivation of sACE-1, M-chelate without lisinopril (control) ([2]; H2O2): < 3,000 {-- ^d} M^−1min^−1
6 | 36 |  | O=C([O-])CN(CC(=O)[O-])CC(=O)O.[Cu+2] [Cu-NTA] | 
7 |  | 7.2 | O=C(O)CN(CCN(CC(=O)O)CC(=O)O)CC(=O)O [EDTA, Ethylenediamine-tetraacetic acid] | 
